Data reported in article PMC3951999 (Cancer cell, 2011).
Like-named read-outs stand apart in the source and are kept apart here.

Legend:
BRAF binding to CRAF = BRAF binding to CRAF with PLX4720; assay type: cell-based; conditions: Fig S3C; cells not given
K562 cells [1] = test: Apoptosis; assay type: cell-based, human; conditions: PD184352 1μM, 4 days
K562R cells [2] = test: Apoptosis; assay type: cell-based, human; conditions: PD184352 1μM, 4 days
[3] = system: BCR-ABL^T315I Ba/F3 allografts; test: Tumor allograft growth, BCR-ABL^T315I Ba/F3 cells in nude mice; assay type: in vivo; conditions: BCR-ABL^T315I tumors; 25 mg/kg, oral gavage daily
BCR-ABL Ba/F3 cells [4] = test: Cell proliferation, BCR-ABL Ba/F3 cells; conditions: PD184352 2μM, imatinib 3μM, nilotinib 1μM, 4 days
BV173 cells [5] = test: Cell proliferation and apoptosis; conditions: PD184352 0.2μM, nilotinib 0.1μM, 6 days
BV173R cells = test: Cell proliferation and apoptosis; conditions: PD184352 0.2μM, nilotinib 0.1μM, 6 days
[6] = system: CD34+ hematopoietic cells from healthy individuals; test: Cell proliferation; conditions: nilotinib 1μM, PD184352 0.3μM, 96 hr
BCR-ABL Ba/F3 cells [7] = test: Apoptosis; conditions: 4 days
[8] = system: BCR-ABL^G250E/T315I, BCR-ABL^E255K/T315I and BCR-ABL^E255V/T315I Ba/F3 cells; test: Cell proliferation, Ba/F3 cells expressing compound BCR-ABL mutants; conditions: Ba/F3 cells with compound BCR-ABL mutants; PD184352 2μM, nilotinib 1μM, 4 days
[9] = system: BCR-ABL^T315I Ba/F3 cells; test: Apoptosis; conditions: 4 days
[10] = system: BCR-ABL^T315I expressing mononuclear cells from imatinib-resistant CML patients; test: Cell proliferation; conditions: primary BCR-ABL^T315I cells; nilotinib 1μM, PD184352 0.3μM, 96 hr
[11] = system: SW620 (KRAS^G12V), Panc1 (KRAS^G12D) and H460 (KRAS^Q61H) cells; test: Western blot for MEK and ERK activation in KRAS mutant cells; assay type: cell-based, human; conditions: imatinib 10μM, nilotinib 1μM, dasatinib 5μM
BV173 cells [12] = test: Western blots of CRAF immunoprecipitates and lysates, BV173 cells; assay type: cell-based, human
RAS [13] = test: RAS-GTP capture assay, BCR-ABL Ba/F3 cells; assay type: cell-based, murine; conditions: nilotinib 1μM, 60 min
K562 cells [14] = test: Western blots of CRAF immunoprecipitates and lysates, K562 cells; assay type: cell-based, human
[15] = system: K562 cells expressing HRAS^G12V; assay type: cell-based, human; conditions: for MEK and ERK phosphorylation: pathway already saturated
[16] = system: Ba/F3 cells expressing BCR-ABL^G250E/T315I, BCR-ABL^E255K/T315I and BCR-ABL^E255V/T315I; test: Western blots, Ba/F3 cells expressing compound BCR-ABL mutants; assay type: cell-based, murine; conditions: Ba/F3 cells with compound BCR-ABL mutants
RAS [17] = test: RAS activity in K562 cells; assay type: cell-based, human
K562R cells [18] = test: Western blots, K562R cells; assay type: cell-based, human
RAS [19] = test: RAS activity in K562R cells; assay type: cell-based, human
BCR-ABL Ba/F3 allografts = test: Tumor allograft growth, BCR-ABL Ba/F3 cells in nude mice; assay type: in vivo; conditions: BCR-ABL tumors; 25 mg/kg, oral gavage daily
D04 cells (NRAS^Q61L) = conditions: western blot
[20] = system: BV173R cells (BCR-ABL^T315I)
[21] = system: mononuclear cells harbouring native BCR-ABL from newly diagnosed CML patients; conditions: primary BCR-ABL cells; nilotinib 1μM, PD184352 0.3μM, 96 hr
[22] = patient plasma; ref Weisberg et al., 2007; Demetri et al., 2002; cited from earlier work
CRAF [23] = biological target: T1, CRAF (Homo sapiens, UniProt P04049); conditions: D04 cells; imatinib 10μM, nilotinib 1μM, dasatinib 5μM, 3 hr
[24] = system: BCR-ABL^T315I Ba/F3 cells; test: Cell proliferation, BCR-ABL^T315I Ba/F3 cells
CRAF [25] = biological target: T2, CRAF (Mus musculus, UniProt Q99N57); test: Endogenous CRAF kinase activity in BCR-ABL Ba/F3 cells
T2 sequence (Q99N57 whole entry): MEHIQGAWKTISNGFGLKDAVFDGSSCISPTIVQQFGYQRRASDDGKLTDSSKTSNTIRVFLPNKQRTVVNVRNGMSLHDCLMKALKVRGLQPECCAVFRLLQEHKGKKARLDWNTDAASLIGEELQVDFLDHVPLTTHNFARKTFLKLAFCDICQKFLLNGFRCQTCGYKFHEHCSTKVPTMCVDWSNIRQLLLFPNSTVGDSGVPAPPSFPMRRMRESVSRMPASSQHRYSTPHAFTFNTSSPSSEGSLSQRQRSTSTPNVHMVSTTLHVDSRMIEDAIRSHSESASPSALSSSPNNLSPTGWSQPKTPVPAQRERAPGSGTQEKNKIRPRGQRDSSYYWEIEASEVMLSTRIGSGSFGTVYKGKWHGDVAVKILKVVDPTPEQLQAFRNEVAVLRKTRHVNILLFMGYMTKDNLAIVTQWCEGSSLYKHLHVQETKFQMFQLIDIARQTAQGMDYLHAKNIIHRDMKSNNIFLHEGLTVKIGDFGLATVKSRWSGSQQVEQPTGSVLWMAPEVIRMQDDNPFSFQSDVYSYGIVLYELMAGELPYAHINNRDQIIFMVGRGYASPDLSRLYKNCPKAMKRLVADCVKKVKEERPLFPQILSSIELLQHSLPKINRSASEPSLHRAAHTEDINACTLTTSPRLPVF

CRAF [26] = biological target: T1, CRAF; test: RAF kinase assay, myc-tagged CRAF captured from COS cells; conditions: imatinib 10μM, nilotinib 1μM, dasatinib 5μM
CRAF [27] = biological target: T2, CRAF; conditions: BCR-ABL^T315I Ba/F3 cells
CRAF^T421N = CRAF^T421N (Homo sapiens, UniProt P04049, T421N); test: RAF kinase assay, myc-tagged CRAF^T421N captured from COS cells; conditions: gatekeeper mutant; imatinib 10μM, nilotinib 1μM, dasatinib 5μM
BCR-ABL Ba/F3 cells [28] = test: Western blots of CRAF immunoprecipitates and lysates, BCR-ABL Ba/F3 cells
[29] = system: BCR-ABL^T315I Ba/F3 cells; test: Western blots of CRAF immunoprecipitates and lysates, BCR-ABL^T315I Ba/F3 cells
CML = conditions: first-line treatment of CML; ref Quintás-Cardama et al., 2009; cited from earlier work
[30] = imatinib 10μM, nilotinib 1μM, dasatinib 5μM

## CCCS(=O)(=O)Nc1ccc(F)c(C(=O)c2c[nH]c3ncc(Cl)cc23)c1F [PLX4720]
BRAF binding to CRAF
  BRAF binding to CRAF: did not induce strong binding of BRAF to CRAF

## O=C(NOCC1CC1)c1ccc(F)c(F)c1Nc1ccc(I)cc1Cl [PD184352]
K562 cells [1]
  apoptosis / cell death: did not kill these cells
K562R cells [2]
  growth / cell death: did not affect the growth
[3]
  tumor growth: insensitive
BCR-ABL Ba/F3 cells [4]
  cell growth: did not inhibit the growth
BV173 cells [5]
  cell proliferation and apoptosis: did not inhibit cell proliferation or induce apoptosis
BV173R cells
  cell proliferation and apoptosis: did not inhibit cell proliferation or induce apoptosis
[6]
  cell proliferation: resistant
BCR-ABL Ba/F3 cells [7]
  apoptosis: did not induce apoptosis
[8]
  cell proliferation: did not affect proliferation
[9]
  apoptosis: did not induce apoptosis
[10]
  cell growth: did not affect the growth

## Cc1cn(-c2cc(NC(=O)c3ccc(C)c(Nc4nccc(-c5cccnc5)n4)c3)cc(C(F)(F)F)c2)cn1 [nilotinib]
[11]
  MEK and ERK activation: activated MEK and ERK
BV173 cells [12]
  BCR-ABL and CRKL phosphorylation: inhibited BCR-ABL and CRKL phosphorylation
  BRAF binding to CRAF: did not induce BRAF binding to CRAF
  MEK and ERK activity: inhibited MEK and ERK
RAS [13]
  RAS activity (RAS-GTP): blocked RAS activity
K562 cells [14]
  BCR-ABL and CRKL phosphorylation: inhibited BCR-ABL and CRKL phosphorylation
  CRAF, MEK and ERK phosphorylation: inhibited CRAF, MEK and ERK phosphorylation
K562 cells [14]; [30]
  BRAF binding to CRAF: did not induce BRAF binding to CRAF
[15]; [30]
  BRAF binding to CRAF: induced BRAF binding to CRAF
[15]
  MEK and ERK phosphorylation: did not increase MEK and ERK phosphorylation
[16]
  BCR-ABL and CRKL phosphorylation: did not inhibit BCR-ABL or CRKL phosphorylation
  BRAF binding to CRAF, MEK and ERK activation: induced BRAF binding to CRAF as well as MEK and ERK activation
RAS [17]
  RAS activity: suppressed RAS activity
K562R cells [18]
  BCR-ABL and CRKL phosphorylation: blocked BCR-ABL and CRKL phosphorylation
  CRAF, MEK and ERK phosphorylation: did not block CRAF, MEK or ERK phosphorylation
RAS [19]
  RAS activity: did not inhibit RAS
K562 cells [1]
  apoptosis / cell death: induced apoptosis
K562R cells [2]
  growth / cell death: did not affect the growth
BCR-ABL Ba/F3 allografts
  tumor growth: strongly suppressed
[3]
  tumor growth: insensitive
D04 cells (NRAS^Q61L)
  lowest concentration stimulating robust MEK and ERK phosphorylation: 100 nM
[20]
  BRAF binding to CRAF: induced BRAF binding to CRAF
  MEK and ERK activity: activated MEK and ERK
[21]
  cell proliferation: inhibited the proliferation
[22]
  peak plasma/serum concentration: ~4 µM
BCR-ABL Ba/F3 cells [4]
  cell growth: sensitive
CRAF [23]
  endogenous CRAF kinase activity: activated
[24]
  cell growth: resistant
CRAF [25]
  CRAF activity: blocked CRAF activity
BV173 cells [5]
  cell proliferation and apoptosis: inhibited cell proliferation and induced apoptosis
CRAF [26]
  CRAF kinase activity in vitro: inhibited
CRAF [27]
  CRAF activity: activated CRAF
[6]
  cell proliferation: resistant
CRAF^T421N
  CRAF^T421N kinase activity in vitro: resistant
BCR-ABL Ba/F3 cells [7]
  apoptosis: induced apoptosis
[8]
  cell proliferation: did not affect proliferation
BCR-ABL Ba/F3 cells [28]
  BRAF binding to CRAF: did not affect BRAF binding to CRAF
BCR-ABL Ba/F3 cells [28]; BCR-ABL Ba/F3 cells
  BCR-ABL (Y245) and CRKL (Y207) phosphorylation: blocked
[10]
  cell growth: did not affect the growth
[29]
  BRAF binding to CRAF: enhanced BRAF binding to CRAF
  CRAF (S338) phosphorylation, MEK and ERK activity/phosphorylation: induced CRAF phosphorylation on S338 (Fig 3C) and activated CRAF (Fig 3D), MEK and ERK
[29]; BCR-ABL^T315I Ba/F3 cells
  BCR-ABL and CRKL phosphorylation: did not inhibit BCR-ABL or CRKL phosphorylation

## Cc1ccc(NC(=O)c2ccc(CN3CCN(C)CC3)cc2)cc1Nc1nccc(-c2cccnc2)n1 [imatinib]
[11]
  MEK and ERK activation: activated MEK and ERK
BV173 cells [12]
  BCR-ABL and CRKL phosphorylation: inhibited BCR-ABL and CRKL phosphorylation
  MEK and ERK activity: inhibited MEK and ERK
[15]
  MEK and ERK phosphorylation: did not increase MEK and ERK phosphorylation
CML
  patients who do not achieve complete responses: 20-30%
